From patent US11517016B2, “Agrochemical combinations” (UPL LTD, priority 2017, dated 2022)

How the values were obtained:
[1] = tested on: fruit borer; assay: Trials of Chlorantraniliprole and Orthosilicic acid on controlling fruit borer; assay type: in vivo; conditions: for Percent fruit Borer control Mean: Mean of A-10, B-10, C-10
Description: Trials were conducted to test the efficacy of the combination of Chlorantraniliprole and Orthosilicic acid on controlling fruit borer at different dosages.

[2] = tested on: Early Blight; assay: Trials of Chlorantraniliprole+Mancozeb+Orthosilicic acid on Early Blight control; assay type: in vivo
Description: Trials were conducted to test the efficacy of the combination of Chlorantraniliprole+Mancozeb+Orthosilicic acid on Early Blight control: […]

For `CNC(=O)c1cc(Cl)cc(C)c1NC(=O)c1cc(Br)nn1-c1ncccc1Cl` [Chlorantraniliprole], the “Percent fruit Borer control A-10” value ([1]; dose 150 gm-ml/ha) was 73.8%, the “Percent fruit Borer control B-10” value ([1]; dose 150 gm-ml/ha) was 85.4% and the “Percent fruit Borer control C-10” value ([1]; dose 150 gm-ml/ha) was 87.8%. For the same compound, the “Percent fruit Borer control Mean” value ([1]; dose 150 gm-ml/ha) was 82.33%, the “Per Cent Early Blight Control (PDC) A-10” value ([2]; T-5, dose 150 gm-ml/ha) was 04.52% and the “Per Cent Early Blight Control (PDC) B-10” value ([2]; T-5, dose 150 gm-ml/ha) was 02.39%. The “Per Cent Early Blight Control (PDC) C-10” value ([2]; T-5, dose 150 gm-ml/ha) was 02.76% and the “Per Cent Early Blight Control (PDC) Mean” value ([2]; T-5, dose 150 gm-ml/ha) was 3.22%.

Mancozeb was tested, and the “Per Cent Early Blight Control (PDC) A-10” value ([2]; T-6, dose 2000 gm-ml/ha) was 72.26%, the “Per Cent Early Blight Control (PDC) B-10” value ([2]; T-6, dose 2000 gm-ml/ha) was 77.04% and the “Per Cent Early Blight Control (PDC) C-10” value ([2]; T-6, dose 2000 gm-ml/ha) was 81.17%. The “Per Cent Early Blight Control (PDC) Mean” value ([2]; T-6, dose 2000 gm-ml/ha) was 76.82%.

In the case of Orthosilicic acid [OSA], the “Percent fruit Borer control A-10” value ([1]; dose 750 gm-ml/ha) is reported as 2.1%, the “Percent fruit Borer control B-10” value ([1]; dose 750 gm-ml/ha) is reported as 3.6% and the “Percent fruit Borer control C-10” value ([1]; dose 750 gm-ml/ha) is reported as 4.4%. The “Percent fruit Borer control Mean” value ([1]; dose 750 gm-ml/ha) was 3.37%, the “Per Cent Early Blight Control (PDC) A-10” value ([2]; T-7, dose 750 gm-ml/ha) was 9.38% and the “Per Cent Early Blight Control (PDC) B-10” value ([2]; T-7, dose 750 gm-ml/ha) was 11.57%. The “Per Cent Early Blight Control (PDC) C-10” value ([2]; T-7, dose 750 gm-ml/ha) was 13.95%, the “Per Cent Early Blight Control (PDC) Mean” value ([2]; T-7, dose 750 gm-ml/ha) was 11.63% and the “Effect of addition on effectiveness of the combination of chlorantraniliprole+Mancozeb against Early blight” value ([2]; added to Chlorantraniliprole+Mancozeb) was “act as synergist”.
